Test results taken from the supplement of paper PMC10307832.

Legend:
Test in all cases: relative viability (nuclei count vs DMSO), 5 days (fraction); higher = more cells survive
[1] = compound: CN(c1ncccc1CNc1nc(Nc2ccc3c(c2)CC(=O)N3)ncc1C(F)(F)F)S(C)(=O)=O + CC(=O)Nc1cccc(-n2c(=O)n(C3CC3)c(=O)c3c(Nc4ccc(I)cc4F)n(C)c(=O)c(C)c32)c1 [Trametinib] (partner 0.02 µM)
Procedure, shortened: (§1)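 Relative viability divides the nuclei count in treated wells by that in vehicle wells. Lung cancer cell lines were seeded in 1536-well plates, dosed by pin tool the next day, and fixed and stained after 5 days in one step with final 0.05% Triton X-100, 1% formaldehyde and 1 ug/ml Hoechst. Dosing was a single drug or a fixed anchor-drug dose plus five library-drug doses (not always all listed) in √10 steps, and values are medians of duplicate plates imaged at 4×.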

[2] = compound: CN(c1ncccc1CNc1nc(Nc2ccc3c(c2)CC(=O)N3)ncc1C(F)(F)F)S(C)(=O)=O + O=C(c1cc(Cc2n[nH]c(=O)c3ccccc23)ccc1F)N1CCN(C(=O)C2CC2)CC1 [Olaparib] (partner 8 µM)
Procedure, shortened: as §1

[3] = compound: CN(c1ncccc1CNc1nc(Nc2ccc3c(c2)CC(=O)N3)ncc1C(F)(F)F)S(C)(=O)=O + CS(=O)(=O)CCNCc1ccc(-c2ccc3ncnc(Nc4ccc(OCc5cccc(F)c5)c(Cl)c4)c3c2)o1 [Lapatinib] (partner 2 µM)
Procedure, shortened: as §1

[4] = compound: CN(c1ncccc1CNc1nc(Nc2ccc3c(c2)CC(=O)N3)ncc1C(F)(F)F)S(C)(=O)=O + N=C(N)NC(=N)NCCc1ccccc1 [Phenformin] (partner 250 µM)
Procedure, shortened: as §1

Cell Line	relative viability ([1]; first compound 0.01 µM)	relative viability ([1]; first compound 0.03162 µM)	relative viability ([1]; first compound 0.1 µM)	relative viability ([1]; first compound 0.3162 µM)	relative viability ([1]; first compound 1 µM)	relative viability ([2]; first compound 0.01 µM)	relative viability ([2]; first compound 0.03162 µM)	relative viability ([2]; first compound 0.1 µM)	relative viability ([2]; first compound 0.3162 µM)	relative viability ([2]; first compound 1 µM)	relative viability ([3]; first compound 0.01 µM)	relative viability ([3]; first compound 0.03162 µM)	relative viability ([3]; first compound 0.1 µM)	relative viability ([3]; first compound 0.3162 µM)	relative viability ([3]; first compound 1 µM)	relative viability ([4]; first compound 0.01 µM)	relative viability ([4]; first compound 0.03162 µM)	relative viability ([4]; first compound 0.1 µM)	relative viability ([4]; first compound 0.3162 µM)	relative viability ([4]; first compound 1 µM)
NCI-H1944	0.412	0.45	0.39	0.449	0.412	0.402	0.421	0.416	0.436	0.42	0.815	0.898	0.782	0.869	0.792	0.22	0.201	0.193	0.19	0.216
HARA	0.816	0.63	0.439	0.63	0.723	0.895	0.75	0.685	1.1	0.9	0.763	0.692	0.616	0.678	0.665	0.449	0.5	0.532	0.432	0.356
NCI-H2126	0.51	0.65	0.483	0.591	0.537	0.879	1.01	0.865	0.867	0.795	0.732	0.732	0.713	0.774	0.721	0.515	0.514	0.456	0.527	0.491
LXF-289	0.706	0.693	0.648	0.664	0.633	1.1	1.21	1.04	1.11	1.02	0.949	0.883	0.9	0.925	0.89	0.542	0.55	0.538	0.521	0.525
NCI-H460	0.108	0.139	0.2	0.185	0.129	0.443	0.573	0.464	0.464	0.396	1.11	1.65	0.963	0.964	1.02	0.599	0.75	0.499	0.484	0.495
NCI-H1395	0.979	1.07	1.06	1.14	1.02	0.454	0.484	0.492	0.457	0.471	0.934	0.974	0.998	1.23	1.19	0.455	0.463	0.459	0.454	0.417
NCI-H2170	0.964	0.906	0.895	0.956	0.94	0.684	0.652	0.672	0.604	0.521	0.263	0.254	0.267	–	0.276	0.404	0.47	0.424	0.332	0.323
NCI-H2009	0.25	0.263	0.246	0.29	0.286	0.651	0.707	0.684	0.681	0.679	1.38	0.959	0.891	0.897	0.903	0.525	0.483	0.502	0.413	0.504
